Measured values reported in patent publication US20070128217A1 (priority 2003, published 2007).

Experiments:
[1] = system: antibodies in sera from SARS patients (sera 1a, 1b, 2, 6, 37, 62, London, SARS-yellow, SARS-green); format: binding, human; parameters: Binding of serum 6 to linear peptides of protein X1 of SARS-CoV Urbani / Binding of serum 37 to linear peptides of protein X1 of SARS-CoV Urbani / Binding of serum 6 to looped/cyclic peptide (PEPSCAN-ELISA) / Binding of serum 37 to looped/cyclic peptide (PEPSCAN-ELISA) / Binding of serum 37 to looped/cyclic peptides of protein X1 of SARS-CoV Urbani / Binding of serum 6 to linear peptides of protein X2 / Binding of serum 37 to linear peptides of protein X2 / Binding of serum 37 to looped/cyclic peptides of protein X2 of SARS-CoV Urbani / Binding of serum 6 to linear peptides of protein M of SARS-CoV Urbani / Binding of serum 37 to linear peptides of protein M of SARS-CoV Urbani / Binding of serum 6 to looped/cyclic peptides of protein M of SARS-CoV Urbani / Binding of serum 37 to looped/cyclic peptides of protein M of SARS-CoV Urbani / Binding of serum 6 to linear peptides of protein X3 of SARS-CoV Urbani / Binding of serum 37 to linear peptides of protein X3 of SARS-CoV Urbani / Binding of serum 37 to looped/cyclic peptides of protein X3 of SARS-CoV Urbani / Binding of serum 6 to linear peptides of protein X4 of SARS-CoV Urbani / Binding of serum 37 to linear peptides of protein X4 of SARS-CoV Urbani / Binding of serum 37 to looped/cyclic peptides of protein X4 of SARS-CoV Urbani / Binding of serum 6 to linear peptides of protein X5 of SARS-CoV Urbani / Binding of serum 37 to linear peptides of protein X5 of SARS-CoV Urbani / Binding of serum 37 to looped/cyclic peptides of protein X5 of SARS-CoV Urbani / Binding of serum 6 to linear peptides of protein N of SARS-CoV Urbani / Binding of serum 37 to linear peptides of protein N of SARS-CoV Urbani / Binding of serum 6 to linear peptide (PEPSCAN-ELISA) / Binding of serum 1a to looped/cyclic peptides of protein N of SARS-CoV Urbani / Binding of serum 1b to looped/cyclic peptides of protein N of SARS-CoV Urbani / Binding of serum 2 to looped/cyclic peptides of protein N of SARS-CoV Urbani / Binding of serum 6 to looped/cyclic peptides of protein N of SARS-CoV Urbani / Binding of serum 37 to looped/cyclic peptides of protein N of SARS-CoV Urbani / Binding of serum 62 to looped/cyclic peptides of protein N of SARS-CoV Urbani / Binding of serum London to looped/cyclic peptides of protein N of SARS-CoV Urbani / Binding of serum SARS-green to looped/cyclic peptides of protein N of SARS-CoV Urbani: unit not given here
[2] = system: control sera (pooled serum of ten healthy LUMC hospital workers; commercial negative donor pooled serum from the Dutch bloodbank); format: binding, human; parameters: Binding of Control serum LUMC to linear peptides / Binding of Control serum Blood-bank to linear peptides / Binding of Control serum LUMC to looped peptides / Binding of Control Serum Blood-Bank to Looped peptides / Binding of Control serum LUMC to linear peptides of the protein M of SARS-CoV Urbani / Binding of Control serum Blood-bank to linear peptides of the protein M of SARS-CoV Urbani / Binding of Control serum LUMC to looped peptides of the protein M of SARS-CoV Urbani / Binding of Control Serum Blood-Bank to Looped peptides of the protein M of SARS-CoV Urbani: unit not given here
[3] = system: rabbit serum obtained by immunizing a rabbit with the SARS-CoV strain Frankfurt 1; format: binding; parameters: Binding of a rabbit serum to linear peptides / Binding of a rabbit serum to looped peptides / Rabbit serum linear peptides / Rabbit serum looped peptides / Binding of a rabbit serum to linear peptides of protein N of SARS-CoV Urbani (Rabbit serum linear peptides) / Binding of a rabbit serum to looped/cyclic peptides of protein N of SARS-CoV Urbani (Rabbit serum looped peptides): unit not given here

Sequence | Binding of serum 1a to linear peptides of protein X1 of SARS-CoV Urbani [1] | Binding of serum 1a to looped/cyclic peptides of protein X1 of SARS-CoV Urbani [1] | Binding of serum 1b to linear peptides of protein X1 of SARS-CoV Urbani [1] | Binding of serum 1b to looped/cyclic peptides of protein X1 of SARS-CoV Urbani [1] | Binding of serum 2 to linear peptides of protein X1 of SARS-CoV Urbani [1] | Binding of serum 2 to looped/cyclic peptides of protein X1 of SARS-CoV Urbani [1] | Binding of serum 6 to linear peptides of protein X1 of SARS-CoV Urbani [1] | Binding of serum 6 to looped/cyclic peptides of protein X1 of SARS-CoV Urbani [1] | Binding of serum 37 to linear peptides of protein X1 of SARS-CoV Urbani [1] | Binding of serum 37 to looped/cyclic peptides of protein X1 of SARS-CoV Urbani [1] | Binding of serum 62 to linear peptides of protein X1 of SARS-CoV Urbani [1] | Binding of serum 62 to looped/cyclic peptides of protein X1 of SARS-CoV Urbani [1] | Binding of serum London to linear peptides of protein X1 of SARS-CoV Urbani [1] | Binding of serum London to looped/cyclic peptides of protein X1 of SARS-CoV Urbani [1] | Binding of serum SARS-green to linear peptides of protein X1 of SARS-CoV Urbani [1] | Binding of serum SARS-green to looped/cyclic peptides of protein X1 of SARS-CoV Urbani [1] | Binding of Control Serum Blood-Bank to Looped peptides [2] | Binding of Control serum Blood-bank to linear peptides [2] | Binding of Control serum LUMC to linear peptides [2] | Binding of Control serum LUMC to looped peptides [2] | also measured
YNSVTDTIVVTEGDG | 0.6 | 0.4 | 0.5 | 0.3 | 0.4 | 0.2 | 0.4 | 0.2 | 0.5 | 0.4 | 0.5 | 0.3 | 0.2 | 0.2 | 0.3 | 0.3 | 0.3 | 0.4 | 0.4 | 0.4 | Binding of serum SARS-yellow to linear peptides of protein X1 of SARS-CoV Urbani [1]: 0.4; Binding of serum SARS-yellow to looped/cyclic peptides of protein X1 of SARS-CoV Urbani [1]: 0.3; Binding of a rabbit serum to linear peptides [3]: 0.1; Binding of a rabbit serum to looped peptides [3]: 0.5
YQLESTQITTDTGIE | 0.6 | 0.4 | 0.5 | 0.3 | 0.4 | 0.1 | 0.5 | 0.1 | 0.6 | 0.3 | 0.5 | 0.3 | 0.2 | 0.1 | 0.4 | 0.2 | 0.3 | 0.4 | 0.4 | 0.4 | Binding of serum SARS-yellow to linear peptides of protein X1 of SARS-CoV Urbani [1]: 0.5; Binding of serum SARS-yellow to looped/cyclic peptides of protein X1 of SARS-CoV Urbani [1]: 0.2; Binding of a rabbit serum to linear peptides [3]: 0.1; Binding of a rabbit serum to looped peptides [3]: 0.4
YQLRARSVSPKLFIR | – | – | – | – | – | – | – | – | – | – | – | – | – | – | – | – | 0.7 | 0.6 | 0.6 | 0.7 | Binding of serum 1a to linear peptides of protein X4 of SARS-CoV Urbani [1]: 0.7; Binding of serum 1a to looped/cyclic peptides of protein X4 of SARS-CoV Urbani [1]: 0.7; Binding of serum 1b to linear peptides of protein X4 of SARS-CoV Urbani [1]: 0.6; Binding of serum 1b to looped/cyclic peptides of protein X4 of SARS-CoV Urbani [1]: 0.4; Binding of serum 2 to linear peptides of protein X4 of SARS-CoV Urbani [1]: 0.6; Binding of serum 2 to looped/cyclic peptides of protein X4 of SARS-CoV Urbani [1]: 0.6; Binding of serum 6 to linear peptides of protein X4 of SARS-CoV Urbani [1]: 0.7; Binding of serum 6 to looped/cyclic peptides of protein X4 of SARS-CoV Urbani [1]: 1.2; Binding of serum 37 to linear peptides of protein X4 of SARS-CoV Urbani [1]: 0.8; Binding of serum 37 to looped/cyclic peptides of protein X4 of SARS-CoV Urbani [1]: 0.7; Binding of serum 62 to linear peptides of protein X4 of SARS-CoV Urbani [1]: 0.7; Binding of serum 62 to looped/cyclic peptides of protein X4 of SARS-CoV Urbani [1]: 0.6; Binding of serum London to linear peptides of protein X4 of SARS-CoV Urbani [1]: 0.8; Binding of serum London to looped/cyclic peptides of protein X4 of SARS-CoV Urbani [1]: 1.4; Binding of serum SARS-green to linear peptides of protein X4 of SARS-CoV Urbani [1]: 0.7; Binding of serum SARS-green to looped/cyclic peptides of protein X4 of SARS-CoV Urbani [1]: 0.4; Binding of serum SARS-yellow to linear peptides of protein X4 of SARS-CoV Urbani [1]: 0.6; Binding of serum SARS-yellow to looped/cyclic peptides of protein X4 of SARS-CoV Urbani [1]: 0.9; Recognition of the peptide by the rabbit serum [3]: recognized
YSPLFLIVAALVFLI | – | – | – | – | – | – | – | – | – | – | – | – | – | – | – | – | 0.4 | 0.6 | 0.5 | 0.7 | Binding of serum 1a to linear peptides of protein X4 of SARS-CoV Urbani [1]: 0.7; Binding of serum 1a to looped/cyclic peptides of protein X4 of SARS-CoV Urbani [1]: 0.7; Binding of serum 1b to linear peptides of protein X4 of SARS-CoV Urbani [1]: 0.3; Binding of serum 1b to looped/cyclic peptides of protein X4 of SARS-CoV Urbani [1]: 0.3; Binding of serum 2 to linear peptides of protein X4 of SARS-CoV Urbani [1]: 0.5; Binding of serum 2 to looped/cyclic peptides of protein X4 of SARS-CoV Urbani [1]: 0.6; Binding of serum 6 to linear peptides of protein X4 of SARS-CoV Urbani [1]: 0.5; Binding of serum 6 to looped/cyclic peptides of protein X4 of SARS-CoV Urbani [1]: 0.4; Binding of serum 37 to linear peptides of protein X4 of SARS-CoV Urbani [1]: 0.7; Binding of serum 37 to looped/cyclic peptides of protein X4 of SARS-CoV Urbani [1]: 0.6; Binding of serum 62 to linear peptides of protein X4 of SARS-CoV Urbani [1]: 0.7; Binding of serum 62 to looped/cyclic peptides of protein X4 of SARS-CoV Urbani [1]: 0.6; Binding of serum London to linear peptides of protein X4 of SARS-CoV Urbani [1]: 0.7; Binding of serum London to looped/cyclic peptides of protein X4 of SARS-CoV Urbani [1]: 0.3; Binding of serum SARS-green to linear peptides of protein X4 of SARS-CoV Urbani [1]: 0.5; Binding of serum SARS-green to looped/cyclic peptides of protein X4 of SARS-CoV Urbani [1]: 0.6; Binding of serum SARS-yellow to linear peptides of protein X4 of SARS-CoV Urbani [1]: 0.4; Binding of serum SARS-yellow to looped/cyclic peptides of protein X4 of SARS-CoV Urbani [1]: 0.4; Rabbit serum linear peptides [3]: 0.3; Rabbit serum looped peptides [3]: 0.5
